The values that follow come from the supplement of paper PMC10307832.

Common to all, as to assay: relative viability (nuclei count vs DMSO), 5 days (fraction); higher = more cells survive
Compound in one assay: CC(C)(C)c1cc(NC(=O)Nc2ccc(-c3cn4c(n3)sc3cc(OCCN5CCOCC5)ccc34)cc2)no1 [Quizartinib]
The gist of the method:
(§1)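 Acceptance criteria were a control CV below 25% and at least one doubling per plate. Lung cancer cell lines in 1536-well plates got five library-drug doses (not always all listed) √10 apart by pinning and were left 5 days with no medium change. Viability divides treated-well nuclei by vehicle-well nuclei and is the median across plates. Nuclei were counted by MetaXpress from 4× Hoechst images.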

Compound in the next assay: COCC[n+]1c2c(n(Cc3cnccn3)c1C)C(=O)c1ccccc1C2=O [YM155]
The gist of the method: as §1

Compound in the assay “Quizartinib + Alpelisib”: CC(C)(C)c1cc(NC(=O)Nc2ccc(-c3cn4c(n3)sc3cc(OCCN5CCOCC5)ccc34)cc2)no1 [Quizartinib] + Cc1nc(NC(=O)N2CCC[C@H]2C(N)=O)sc1-c1ccnc(C(C)(C)C(F)(F)F)c1 [Alpelisib] (partner 2 µM)
An outline of the steps:
(§2)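 Each reported value is a median over duplicate plates. It expresses relative viability: treated-well nuclei count divided by vehicle-well nuclei count. Lung cancer cell lines in 1536-well plates were dosed by pin tool a day after seeding, alone with one drug or with a fixed anchor-drug dose plus five library-drug doses (not always all listed) in √10 steps, and nuclei were counted after 5 days.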

Compound in the assay “YM155 + Pemetrexed”: COCC[n+]1c2c(n(Cc3cnccn3)c1C)C(=O)c1ccccc1C2=O [YM155] + Nc1nc2[nH]cc(CCc3ccc(C(=O)N[C@@H](CCC(=O)O)C(=O)O)cc3)c2c(=O)[nH]1 [Pemetrexed] (partner 0.2 µM)
The gist of the method: as §2

HCC-366: the relative viability with Quizartinib (0.001 µM) worked out at 0.978; with Quizartinib (0.003162 µM) it was 1.04; with Quizartinib (0.01 µM), 1.06; with Quizartinib (0.03162 µM), 1.04; in the assay with Quizartinib (0.1 µM), 1.02; in the assay with YM155 (0.002 µM), 1.05. Further, the relative viability stood at 0.993 in the assay with YM155 (0.006325 µM); 1.01 in the assay with YM155 (0.02 µM); 1.06 with YM155 (0.06325 µM); 0.348 in the assay with Quizartinib + Alpelisib (first compound 0.001 µM); 0.31 in the assay with Quizartinib + Alpelisib (first compound 0.003162 µM); 0.448 with Quizartinib + Alpelisib (first compound 0.01 µM). The relative viability with Quizartinib + Alpelisib (first compound 0.03162 µM) is 0.404; with Quizartinib + Alpelisib (first compound 0.1 µM), 0.358; with YM155 + Pemetrexed (first compound 0.002 µM) it was 0.161; with YM155 + Pemetrexed (first compound 0.006325 µM) it was 0.187; in the assay with YM155 + Pemetrexed (first compound 0.02 µM), 0.158; in the assay with YM155 + Pemetrexed (first compound 0.06325 µM), 0.165.

Consider HCC-827, for which the relative viability came out at 0.943 with Quizartinib (0.001 µM); 1.04 with Quizartinib (0.003162 µM); 0.978 with Quizartinib (0.01 µM); 1.03 with Quizartinib (0.03162 µM); 1.09 with Quizartinib (0.1 µM); 0.986 with YM155 (0.002 µM). Moreover, the relative viability in the assay with YM155 (0.006325 µM) worked out at 1.05; with YM155 (0.02 µM), 1.03; with YM155 (0.06325 µM) it was 1.11; in the assay with Quizartinib + Alpelisib (first compound 0.001 µM), 0.952; in the assay with Quizartinib + Alpelisib (first compound 0.003162 µM), 0.858; with Quizartinib + Alpelisib (first compound 0.01 µM), 0.965. The relative viability turned out to be 0.976 with Quizartinib + Alpelisib (first compound 0.03162 µM); 0.987 in the assay with Quizartinib + Alpelisib (first compound 0.1 µM); 0.301 with YM155 + Pemetrexed (first compound 0.002 µM); 0.328 with YM155 + Pemetrexed (first compound 0.006325 µM); 0.253 in the assay with YM155 + Pemetrexed (first compound 0.02 µM); 0.303 in the assay with YM155 + Pemetrexed (first compound 0.06325 µM).

Regarding HOP-62, the relative viability with Quizartinib (0.001 µM) was found to be 0.843; in the assay with Quizartinib (0.003162 µM), 0.954; in the assay with Quizartinib (0.01 µM) it was 1.01; with Quizartinib (0.03162 µM) it was 1.1; in the assay with Quizartinib (0.1 µM), 0.979; with YM155 (0.002 µM) it was 0.971. In addition, the relative viability in the assay with YM155 (0.006325 µM) came to 0.93; with YM155 (0.02 µM) it was 1.06; with YM155 (0.06325 µM), 0.93; with Quizartinib + Alpelisib (first compound 0.001 µM) it was 0.75; with Quizartinib + Alpelisib (first compound 0.003162 µM), 0.706; in the assay with Quizartinib + Alpelisib (first compound 0.01 µM), 1.19. The relative viability amounted to 1.26 in the assay with Quizartinib + Alpelisib (first compound 0.03162 µM); 0.907 with Quizartinib + Alpelisib (first compound 0.1 µM); 0.372 in the assay with YM155 + Pemetrexed (first compound 0.002 µM); 0.365 with YM155 + Pemetrexed (first compound 0.006325 µM); 0.325 with YM155 + Pemetrexed (first compound 0.02 µM); 0.289 with YM155 + Pemetrexed (first compound 0.06325 µM).

In the case of LC-2-ad, the relative viability with Quizartinib (0.001 µM) worked out at 0.827; in the assay with Quizartinib (0.003162 µM), 1.02; with Quizartinib (0.01 µM) it was 0.972; with Quizartinib (0.03162 µM), 0.863; with Quizartinib (0.1 µM), 0.892; with YM155 (0.002 µM), 0.914. The relative viability in the assay with YM155 (0.006325 µM) turned out to be 0.978; in the assay with YM155 (0.02 µM), 0.972; with YM155 (0.06325 µM) it was 0.913; with Quizartinib + Alpelisib (first compound 0.001 µM) it was 0.775; with Quizartinib + Alpelisib (first compound 0.003162 µM), 0.837; in the assay with Quizartinib + Alpelisib (first compound 0.01 µM) it was 0.952. Also, the relative viability with Quizartinib + Alpelisib (first compound 0.03162 µM) came out at 0.9; in the assay with Quizartinib + Alpelisib (first compound 0.1 µM), 0.592; in the assay with YM155 + Pemetrexed (first compound 0.002 µM), 0.287; with YM155 + Pemetrexed (first compound 0.006325 µM) it was 0.248; in the assay with YM155 + Pemetrexed (first compound 0.02 µM), 0.28; with YM155 + Pemetrexed (first compound 0.06325 µM), 0.262.

LCLC-97TM1: the relative viability amounted to 0.771 in the assay with Quizartinib (0.001 µM); 0.968 with Quizartinib (0.003162 µM); 0.918 with Quizartinib (0.01 µM); 0.964 in the assay with Quizartinib (0.03162 µM); 1 in the assay with Quizartinib (0.1 µM); 0.791 with YM155 (0.002 µM). Moreover, the relative viability with YM155 (0.006325 µM) turned out to be 0.955; with YM155 (0.02 µM), 1.04; with YM155 (0.06325 µM) it was 0.957; with Quizartinib + Alpelisib (first compound 0.003162 µM), 0.22; with Quizartinib + Alpelisib (first compound 0.01 µM), 0.267; in the assay with Quizartinib + Alpelisib (first compound 0.03162 µM), 0.261. For the same cell line, the relative viability with Quizartinib + Alpelisib (first compound 0.1 µM) stood at 0.252; with YM155 + Pemetrexed (first compound 0.006325 µM), 0.193; with YM155 + Pemetrexed (first compound 0.02 µM), 0.181; with YM155 + Pemetrexed (first compound 0.06325 µM), 0.18.

Consider LCLC-103H, for which the relative viability was found to be 0.87 with Quizartinib (0.001 µM); 0.983 with Quizartinib (0.003162 µM); 0.911 with Quizartinib (0.01 µM); 0.994 with Quizartinib (0.03162 µM); 0.971 in the assay with Quizartinib (0.1 µM); 0.996 with YM155 (0.002 µM). The relative viability with YM155 (0.006325 µM) stood at 0.941; with YM155 (0.02 µM) it was 0.932; with YM155 (0.06325 µM), 1.02; with Quizartinib + Alpelisib (first compound 0.001 µM), 1.01; in the assay with Quizartinib + Alpelisib (first compound 0.003162 µM) it was 0.533; with Quizartinib + Alpelisib (first compound 0.01 µM) it was 0.94. In addition, the relative viability with Quizartinib + Alpelisib (first compound 0.03162 µM) turned out to be 1.04; in the assay with Quizartinib + Alpelisib (first compound 0.1 µM), 0.943; with YM155 + Pemetrexed (first compound 0.002 µM), 0.473; with YM155 + Pemetrexed (first compound 0.006325 µM), 0.453; with YM155 + Pemetrexed (first compound 0.02 µM), 0.416; with YM155 + Pemetrexed (first compound 0.06325 µM), 0.463.

In the case of LK-2, the relative viability in the assay with Quizartinib (0.001 µM) was 0.943; with Quizartinib (0.003162 µM) it was 0.891; with Quizartinib (0.01 µM) it was 1.02; in the assay with Quizartinib (0.03162 µM) it was 0.944; with Quizartinib (0.1 µM), 1.15; in the assay with YM155 (0.002 µM), 0.893. Moreover, the relative viability worked out at 1.06 with YM155 (0.006325 µM); 1.03 with YM155 (0.02 µM); 1.16 with YM155 (0.06325 µM); 1.14 in the assay with Quizartinib + Alpelisib (first compound 0.001 µM); 1.08 with Quizartinib + Alpelisib (first compound 0.003162 µM); 1.04 with Quizartinib + Alpelisib (first compound 0.01 µM). For the same cell line, the relative viability in the assay with Quizartinib + Alpelisib (first compound 0.03162 µM) was determined as 1.03; in the assay with Quizartinib + Alpelisib (first compound 0.1 µM) it was 1.06; in the assay with YM155 + Pemetrexed (first compound 0.002 µM), 0.276; with YM155 + Pemetrexed (first compound 0.006325 µM), 0.287; with YM155 + Pemetrexed (first compound 0.02 µM), 0.263; with YM155 + Pemetrexed (first compound 0.06325 µM) it was 0.364.

As for LOU-NH91, the relative viability stood at 0.954 with Quizartinib (0.001 µM); 1.12 in the assay with Quizartinib (0.003162 µM); 0.965 with Quizartinib (0.01 µM); 0.857 with Quizartinib (0.03162 µM); 1.14 with Quizartinib (0.1 µM); 0.958 in the assay with YM155 (0.002 µM). Besides, the relative viability in the assay with YM155 (0.006325 µM) turned out to be 1.01; with YM155 (0.02 µM) it was 1.02; with YM155 (0.06325 µM), 1.07; with Quizartinib + Alpelisib (first compound 0.001 µM), 0.683; in the assay with Quizartinib + Alpelisib (first compound 0.003162 µM), 0.724; with Quizartinib + Alpelisib (first compound 0.01 µM), 0.761. Moreover, the relative viability in the assay with Quizartinib + Alpelisib (first compound 0.03162 µM) is 0.5; with Quizartinib + Alpelisib (first compound 0.1 µM), 0.771; with YM155 + Pemetrexed (first compound 0.002 µM), 0.361; with YM155 + Pemetrexed (first compound 0.006325 µM), 0.356; with YM155 + Pemetrexed (first compound 0.02 µM), 0.346; with YM155 + Pemetrexed (first compound 0.06325 µM) it was 0.343.
